Experimental data taken from US9040530B2, “1,2,4-triazine-6-carboxamide kinase inhibitors” (Portola Pharmaceuticals, Inc., priority 2012, dated 2015).

target: T1, full length active recombinant SYK enzyme (Homo sapiens, UniProt P43405); experiment: Inhibition of Syk tyrosine phosphorylation activity (LANCE TR-FRET kinase assay); type: biochemical; details: 1 nM active SYK enzyme, 550 nM SYK-substrate, 100 μM ATP, 1 hour at room temperature
T1 construct: full length active recombinant SYK enzyme (Millipore, Calif.); purchased Millipore
Protocol: The in vitro and in vivo human Syk activities of the inventive compounds can be determined by various procedures known in the art, such as a test for their ability to inhibit the activity of human plasma Syk.
Inhibition of Syk Tyrosine Phosphorylation Activity
SYK tyrosine phosphorylation activity is measured using the LANCE™ Technology developed by Perkin Elmer Life and Analytical Sciences (Boston, Mass.). LANCE™ refers to homogeneous time resolved fluorometry applications using techniques such as time-resolved fluorescence resonance energy transfer assay (TR-FRET) (see generally for procedures in Perkin Elmer Application Note—How to Optimize a Tyrosine Kinase Assay Using Time Resolved Fluorescence-Based LANCE Detection, wwww.perkinelmer.com/lifesciences). The assay principle involves detection of a phosphorylated substrate using energy transfer from a phosphospecific europium-labeled antibody to streptavidin-allophycocyanin as an acceptor.
Molecules are reconstituted in 30% DMSO and serially diluted 1:3 with the final dilution containing DMSO in the absence of the candidate molecule. The final DMSO concentration in the assay is 3%. Kinase assays are performed as a two part reaction. […] The second reaction involves termination of the kinase reaction and the simultaneous addition of the detection reagents-europium-labeled anti-phosphotyrosine reagent (Eu-W1024-PY100, Perkin Elmer, Boston, Mass.) and Streptavidin-Allophycocyanin detection reagent (SA-APC, Prozyme, CA). The kinase reaction is performed in a black U-bottom 96-well microtitre plate. […] The reaction is allowed to proceed for 1 hour at room temperature. The quench buffer contains 100 mM Tris pH 7.5, 300 mM […], 20 mM EDTA, 0.02% Brij35, and 0.5% BSA. The detection reagents are added to the reaction mixture at the following dilutions-1:500 for Eu-W1024-PY100 and 1:250 for SA-APC. The kinase reaction is terminated by the addition of 50 μL quench buffer containing the detection reagents. The detection is allowed to proceed for 1 hr at room temperature. Detection of the phosphorlated substrate in the absence and presence of inhibitors is measured in the TR-FRET instrument, Analyst HT (Molecular Probes, Sunnyvale, Calif.) and the condition for measurements are set up using CriterionHost Release 2.0 (Molecular Probes, Sunnyvale, Calif.). […] IC50s were derived by non-linear regression analysis.

SMILES | IC50
NC(=O)c1nnc(N[C@@H]2CCOC[C@@H]2N)nc1Nc1ccc(-c2ncco2)cc1 [Example 253, 3-(((3R,4R)-3-aminotetrahydro-2H-pyran-4-yl)amino)-5-((4-(oxazol-2-yl)phenyl)amino)-1,2,4-triazine-6-carboxamide] | 10 to 100 nM
NC(=O)c1nnc(N[C@@H]2CCCC[C@@H]2N)nc1Nc1cc(-c2ccc(F)cc2)on1 [Example 127, 3-(((1R,2S)-2-aminocyclohexyl)amino)-5-((5-(4-fluorophenyl)isoxazol-3-yl)amino)-1,2,4-triazine-6-carboxamide] | 100 to 1000 nM
COc1cc(Nc2nc(N[C@@H]3CCCC(F)(F)[C@@H]3N)nnc2C(N)=O)ccc1Cl [Example 230, 3-(((1R,2R)-2-amino-3,3-difluorocyclohexyl)amino)-5-((4-chloro-3-methoxyphenyl)amino)-1,2,4-triazine-6-carboxamide] | 100 to 1000 nM
NC(=O)c1nnc(N[C@@H]2CCCC[C@@H]2N)nc1Nc1csc2ncccc12 [Example 37, 3-(((1R,2S)-2-aminocyclohexyl)amino)-5-(thieno[2,3-b]pyridin-3-ylamino)-1,2,4-triazine-6-carboxamide] | 1 to 10 nM
NC(=O)c1nnc(N[C@@H]2CCCC[C@@H]2N)nc1Nc1ccn2ccnc2c1 [Example 198, 3-(((1R,2S)-2-aminocyclohexyl)amino)-5-(imidazo[1,2-a]pyridin-7-ylamino)-1,2,4-triazine-6-carboxamide] | 1 to 10 nM
NC(=O)c1nnc(N[C@@H]2CCCC[C@@H]2N)nc1Nc1cnc2c(F)cccc2c1 [Example 160, 3-(((1R,2S)-2-aminocyclohexyl)amino)-5-((8-fluoroquinolin-3-yl)amino)-1,2,4-triazine-6-carboxamide] | 1 to 10 nM
NC(=O)c1nnc(N[C@@H]2CCCC(F)(F)[C@@H]2N)nc1Nc1ccc(Cl)cc1 [Example 250, 3-(((1R,2R)-2-amino-3,3-difluorocyclohexyl)amino)-5-((4-chlorophenyl)amino)-1,2,4-triazine-6-carboxamide] | 100 to 1000 nM
NC(=O)c1nnc(N[C@@H]2CCCC(F)(F)[C@@H]2N)nc1Nc1ccc2c(c1)CCOC2 [Example 214, 3-(((1R,2R)-2-amino-3,3-difluorocyclohexyl)amino)-5-(isochroman-6-ylamino)-1,2,4-triazine-6-carboxamide] | 10 to 100 nM
NC(=O)c1nnc(N[C@@H]2CCCC[C@@H]2N)nc1Nc1cnc2cc(F)ccc2c1 [Example 158, 3-(((1R,2S)-2-aminocyclohexyl)amino)-5-((7-fluoroquinolin-3-yl)amino)-1,2,4-triazine-6-carboxamide] | 1 to 10 nM
N#Cc1cccc(Nc2nc(N[C@@H]3CCCC[C@@H]3N)nnc2C(N)=O)c1 [Example 72, 3-(((1R,2S)-2-aminocyclohexyl)amino)-5-((3-cyanophenyl)amino)-1,2,4-triazine-6-carboxamide] | 1 to 10 nM
NC(=O)c1nnc(N[C@@H]2CCCC[C@@H]2N)nc1Nc1cnn2ccccc12 [Example 35, 3-(((1R,2S)-2-aminocyclohexyl)amino)-5-(pyrazolo[1,5-a]pyridin-3-ylamino)-1,2,4-triazine-6-carboxamide] | 1 to 10 nM
NC(=O)c1nnc(N[C@H]2CC[C@@H](N)CC2)nc1Nc1ccc2ncccc2c1 [Example 56, 3-(((1S,4S)-4-aminocyclohexyl)amino)-5-(quinolin-6-ylamino)-1,2,4-triazine-6-carboxamide] | 10 to 100 nM
COc1cc(Nc2nc(N[C@@H]3CCOC[C@@H]3N)nnc2C(N)=O)ccc1Cl [Example 256, 3-(((3R,4R)-3-aminotetrahydro-2H-pyran-4-yl)amino)-5-((4-chloro-3-methoxyphenyl)amino)-1,2,4-triazine-6-carboxamide] | 10 to 100 nM
COc1ccc(Nc2nc(N[C@@H]3CCCC[C@@H]3N)nnc2C(N)=O)cc1Cl [Example 125, 3-(((1R,2S)-2-aminocyclohexyl)amino)-5-((3-chloro-4-methoxyphenyl)amino)-1,2,4-triazine-6-carboxamide] | 1 to 10 nM
NC(=O)c1nnc(N[C@@H]2CCCC[C@@H]2N)nc1Nc1ccc(-n2cncn2)cc1 [Example 106, 5-((4-(1H-1,2,4-triazol-1-yl)phenyl)amino)-3-(((1R,2S)-2-aminocyclohexyl)amino)-1,2,4-triazine-6-carboxamide] | 10 to 100 nM
Cn1ccc2c(Nc3nc(NCc4cc[nH]n4)nnc3C(N)=O)cccc21 [Example 91, 3-(((1H-pyrazol-3-yl)methyl)amino)-5-((1-methyl-1H-indol-4-yl)amino)-1,2,4-triazine-6-carboxamide] | 100 to 1000 nM

Second part, the compound after the results:

IC50 | SMILES
10 to 100 nM | CC[C@@H](Nc1nnc(C(N)=O)c(Nc2ccc(Cl)c(C)c2)n1)C(N)=O [Example 221, (R)-3-((1-amino-1-oxobutan-2-yl)amino)-5-((4-chloro-3-methylphenyl)amino)-1,2,4-triazine-6-carboxamide]
10 to 100 nM | CC[C@@H](Nc1nnc(C(N)=O)c(Nc2ccc(OC)c(Cl)c2)n1)C(N)=O [Example 174, (R)-3-((1-amino-1-oxobutan-2-yl)amino)-5-((3-chloro-4-methoxyphenyl)amino)-1,2,4-triazine-6-carboxamide]
100 to 1000 nM | CC[C@@H](Nc1nnc(C(N)=O)c(Nc2ccc(C)c(C#N)c2)n1)C(N)=O [Example 234, (R)-3-((1-amino-1-oxobutan-2-yl)amino)-5-((3-cyano-4-methylphenyl)amino)-1,2,4-triazine-6-carboxamide]
10 to 100 nM | CC[C@@H](Nc1nnc(C(N)=O)c(Nc2cc(C)ns2)n1)C(N)=O [Example 140, (R)-3-((1-amino-1-oxobutan-2-yl)amino)-5-((3-methylisothiazol-5-yl)amino)-1,2,4-triazine-6-carboxamide]
100 to 1000 nM | CC[C@@H](Nc1nnc(C(N)=O)c(Nc2cncc(F)c2)n1)C(N)=O [Example 15, (R)-3-((1-amino-1-oxobutan-2-yl)amino)-5-((5-fluoropyridin-3-yl)amino)-1,2,4-triazine-6-carboxamide]
100 to 1000 nM | CC[C@@H](Nc1nnc(C(N)=O)c(Nc2cncs2)n1)C(N)=O [Example 199, (R)-3-((1-amino-1-oxobutan-2-yl)amino)-5-(thiazol-5-ylamino)-1,2,4-triazine-6-carboxamide]
1 to 10 nM | CC[C@@H](Nc1nnc(C(N)=O)c(Nc2ccc3cn[nH]c3c2)n1)C(N)=O [Example 128, (R)-5-((1H-indazol-6-yl)amino)-3-((1-amino-1-oxobutan-2-yl)amino)-1,2,4-triazine-6-carboxamide]
1 to 10 nM | Cc1cc(Nc2nc(N[C@@H]3CCCC[C@@H]3N)nnc2C(N)=O)ccc1F [Example 26, 3-(((1R,2S)-2-aminocyclohexyl)amino)-5-((4-fluoro-3-methylphenyl)amino)-1,2,4-triazine-6-carboxamide]
10 to 100 nM | CC[C@@H](Nc1nnc(C(N)=O)c(Nc2ccc(N(C)C)c(F)c2)n1)C(N)=O [Example 162, (R)-3-((1-amino-1-oxobutan-2-yl)amino)-5-((4-(dimethylamino)-3-fluorophenyl)amino)-1,2,4-triazine-6-carboxamide]
10 to 100 nM | Cc1ccc(Nc2nc(N[C@H](CC(F)F)C(N)=O)nnc2C(N)=O)cc1 [Example 143, (R)-3-((1-amino-4,4-difluoro-1-oxobutan-2-yl)amino)-5-(p-tolylamino)-1,2,4-triazine-6-carboxamide]
1 to 10 nM | CC[C@@H](Nc1nnc(C(N)=O)c(Nc2ccc3cc[nH]c3c2)n1)C(N)=O [Example 102, (R)-5-((1H-indol-6-yl)amino)-3-((1-amino-1-oxobutan-2-yl)amino)-1,2,4-triazine-6-carboxamide]
100 to 1000 nM | CC[C@@H](Nc1nnc(C(N)=O)c(Nc2ccccc2)n1)C(N)=O [Example 99, (R)-3-((1-amino-1-oxobutan-2-yl)amino)-5-(phenylamino)-1,2,4-triazine-6-carboxamide]
1 to 10 nM | CC[C@@H](Nc1nnc(C(N)=O)c(Nc2csc3ncccc23)n1)C(N)=O [Example 39, (R)-3-((1-amino-1-oxobutan-2-yl)amino)-5-(thieno[2,3-b]pyridin-3-ylamino)-1,2,4-triazine-6-carboxamide]
10 to 100 nM | Cc1ccc(Nc2nc(N[C@H](Cc3cccc(F)c3)C(N)=O)nnc2C(N)=O)cc1 [Example 190, (R)-3-(1-amino-3-(3-fluorophenyl)-1-oxopropan-2-ylamino)-5-(p-tolylamino)-1,2,4-triazine-6-carboxamide]
1 to 10 nM | Cc1ccc(Nc2nc(N[C@@H]3CCOC[C@@H]3N)nnc2C(N)=O)cc1C [Example 145, 3-(((3R,4R)-3-aminotetrahydro-2H-pyran-4-yl)amino)-5-((3,4-dimethylphenyl)amino)-1,2,4-triazine-6-carboxamide]
